# Measurements taken from publication PMC9124820, “In vitro evaluation of fenfluramine and norfenfluramine as victims of drug interactions” (Pharmacology Research & Perspectives, 2022).
# Experiments:
# [1] = target: T1, OCT2 (Homo sapiens, UniProt O15244); assay: Transporter substrate determination, uptake in HEK293-OCT2 cells; assay type: in vitro ADME; details: for Maximum Ratio (uptake in transporter‐expressing cells to empty‐vector control cells): HEK293‐OCT2, 0.1, 1, 10 µM, threshold ≥2‐fold; for substrate of the transporter: OCT2
# T1 construct: host or cells: HEK293
# T1 sequence (O15244 1-555): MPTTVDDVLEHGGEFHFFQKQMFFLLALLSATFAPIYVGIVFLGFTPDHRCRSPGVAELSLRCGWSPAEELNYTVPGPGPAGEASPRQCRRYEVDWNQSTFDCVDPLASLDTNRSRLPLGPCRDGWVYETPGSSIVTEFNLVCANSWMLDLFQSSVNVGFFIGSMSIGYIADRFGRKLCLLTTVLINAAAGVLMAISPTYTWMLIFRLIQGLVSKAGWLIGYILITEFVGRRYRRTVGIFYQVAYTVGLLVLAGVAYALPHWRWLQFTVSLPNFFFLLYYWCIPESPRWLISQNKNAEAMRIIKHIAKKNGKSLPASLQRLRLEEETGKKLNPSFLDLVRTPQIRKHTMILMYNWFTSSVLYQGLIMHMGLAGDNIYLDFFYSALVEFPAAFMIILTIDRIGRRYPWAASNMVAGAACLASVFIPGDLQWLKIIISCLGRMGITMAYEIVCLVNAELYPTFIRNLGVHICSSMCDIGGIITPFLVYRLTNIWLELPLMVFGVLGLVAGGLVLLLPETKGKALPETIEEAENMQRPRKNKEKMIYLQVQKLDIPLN
# Method: (§1) LC‐MS/MS analyses to assess metabolic stability and identify the transporter substrate were performed using an API 4000 QTRAP mass spectrometer (SCIEX, Framingham, MA) with electrospray ionization in positive mode. Chromatography was performed using an Atlantis dC18 analytical column (100 × 2.1 mm, 5 µm; Waters Corporation, Milford, MA). Mobile phases were 0.2% v/v formic acid in water and 0.2% v/v formic acid in acetonitrile. For metabolic stability experiments, FFA and metabolites were eluted at a flow rate of 0.6 mL/min, with a linear gradient of 20%−80% acetonitrile from 0.30−2.0 min. For transporter substrate experiments, the gradient was slightly modified to achieve suitable chromatography. The mass transitions monitored were 232.0 > 159.0 for FFA and 348.0 > 330.0 for 1ʹ‐OH‐midazolam‐d4 internal standard.
# (§2) FFA and nFFA were evaluated as substrates of the transporters breast cancer resistance protein (BCRP), organic anion transporter (OAT)1, OAT3, organic cation transporter (OCT)2, MATE1, MATE2‐K, and P‐glycoprotein multidrug transporter (P‐gp; also known as MDR1 and ABCB1), according to published methods.[25], [26], [27], [28], [29] Madin‐Darby canine kidney (MDCKII)‐BCRP cells (Netherlands Cancer Institute, Amsterdam, Netherlands) or human embryonic kidney (HEK)293 cells transfected with other transporters (Sekisui Medical Co., Ltd., Tokyo, Japan) were used. Transporter‐transfected and control cells were incubated with FFA or nFFA (0.1, 1, or 10 μM), and the amount of FFA and nFFA accumulated in the cells was measured by LC‐MS/MS as described above. The accumulation of positive control substrates in the presence and absence of an inhibitor served as a positive control for transporter function. […] BCRP substrate determination was made by bi‐directional permeability across MDCKII‐BCRP and control cells cultured on 24‐well transwell plates. Incubation medium containing probe substrate was added. Ten minutes later, transepithelial electrical resistance (TEER) was recorded and cells were preincubated at 37 ± 2°C for 30−60 min before FFA or nFFA or positive control substrate with the solvent control or positive control inhibitor was added to the donor (apical) chamber. […] Samples containing FFA, nFFA, or probe substrate were mixed with internal standard and analyzed by LC‐MS/MS. […] An aliquot was added to 96‐well plate containing scintillation fluid that was analyzed by a MicroBeta^2 scintillation counter (Perkin Elmer, Waltham, MA). Protein concentration was determined by a bicinchoninic acid (BCA) protein assay according to the manufacturer’s protocol (Thermo Fisher Scientific, Waltham, MA). Non‐radiolabeled compounds were resuspended in a 50:50 v/v methanol:water solution containing internal standard and were analyzed by LC‐MS/MS. […]
# [2] = target: T2, BCRP (Homo sapiens, UniProt Q9UNQ0); assay: Transporter substrate determination, bi-directional permeability in MDCKII-BCRP cells; assay type: in vitro ADME; design: host or cells: MDCKII; details: for substrate of the transporter: BCRP; for Maximum Ratio (net flux in transporter‐expressing cells to control cells): MDCKII‐BCRP, 0.1, 1, 10 µM, threshold ≥2‐fold suggests substrate
# T2 sequence (Q9UNQ0 1-655): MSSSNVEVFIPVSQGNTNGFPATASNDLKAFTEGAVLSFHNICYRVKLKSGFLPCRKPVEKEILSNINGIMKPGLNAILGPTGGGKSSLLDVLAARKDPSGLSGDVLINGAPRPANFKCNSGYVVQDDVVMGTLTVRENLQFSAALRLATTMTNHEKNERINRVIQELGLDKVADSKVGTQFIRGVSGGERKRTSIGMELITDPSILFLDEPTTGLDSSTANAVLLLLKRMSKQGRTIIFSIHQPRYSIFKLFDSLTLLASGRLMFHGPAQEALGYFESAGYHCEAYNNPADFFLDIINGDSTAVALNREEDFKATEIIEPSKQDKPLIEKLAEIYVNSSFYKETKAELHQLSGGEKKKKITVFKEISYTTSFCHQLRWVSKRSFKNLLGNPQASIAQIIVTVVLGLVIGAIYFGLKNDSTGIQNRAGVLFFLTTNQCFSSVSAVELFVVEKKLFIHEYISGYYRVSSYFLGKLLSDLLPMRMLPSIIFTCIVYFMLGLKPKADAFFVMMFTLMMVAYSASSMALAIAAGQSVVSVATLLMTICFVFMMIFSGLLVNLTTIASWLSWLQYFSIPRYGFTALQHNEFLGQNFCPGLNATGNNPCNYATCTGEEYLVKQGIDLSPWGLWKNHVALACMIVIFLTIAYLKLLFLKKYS
# Method: as §1, §2
# [3] = target: P‐gp (Homo sapiens, UniProt P08183); assay: Transporter substrate determination, efflux ratio across Caco-2 cells (P-gp)
# Sequence of P‐gp (P08183 whole entry): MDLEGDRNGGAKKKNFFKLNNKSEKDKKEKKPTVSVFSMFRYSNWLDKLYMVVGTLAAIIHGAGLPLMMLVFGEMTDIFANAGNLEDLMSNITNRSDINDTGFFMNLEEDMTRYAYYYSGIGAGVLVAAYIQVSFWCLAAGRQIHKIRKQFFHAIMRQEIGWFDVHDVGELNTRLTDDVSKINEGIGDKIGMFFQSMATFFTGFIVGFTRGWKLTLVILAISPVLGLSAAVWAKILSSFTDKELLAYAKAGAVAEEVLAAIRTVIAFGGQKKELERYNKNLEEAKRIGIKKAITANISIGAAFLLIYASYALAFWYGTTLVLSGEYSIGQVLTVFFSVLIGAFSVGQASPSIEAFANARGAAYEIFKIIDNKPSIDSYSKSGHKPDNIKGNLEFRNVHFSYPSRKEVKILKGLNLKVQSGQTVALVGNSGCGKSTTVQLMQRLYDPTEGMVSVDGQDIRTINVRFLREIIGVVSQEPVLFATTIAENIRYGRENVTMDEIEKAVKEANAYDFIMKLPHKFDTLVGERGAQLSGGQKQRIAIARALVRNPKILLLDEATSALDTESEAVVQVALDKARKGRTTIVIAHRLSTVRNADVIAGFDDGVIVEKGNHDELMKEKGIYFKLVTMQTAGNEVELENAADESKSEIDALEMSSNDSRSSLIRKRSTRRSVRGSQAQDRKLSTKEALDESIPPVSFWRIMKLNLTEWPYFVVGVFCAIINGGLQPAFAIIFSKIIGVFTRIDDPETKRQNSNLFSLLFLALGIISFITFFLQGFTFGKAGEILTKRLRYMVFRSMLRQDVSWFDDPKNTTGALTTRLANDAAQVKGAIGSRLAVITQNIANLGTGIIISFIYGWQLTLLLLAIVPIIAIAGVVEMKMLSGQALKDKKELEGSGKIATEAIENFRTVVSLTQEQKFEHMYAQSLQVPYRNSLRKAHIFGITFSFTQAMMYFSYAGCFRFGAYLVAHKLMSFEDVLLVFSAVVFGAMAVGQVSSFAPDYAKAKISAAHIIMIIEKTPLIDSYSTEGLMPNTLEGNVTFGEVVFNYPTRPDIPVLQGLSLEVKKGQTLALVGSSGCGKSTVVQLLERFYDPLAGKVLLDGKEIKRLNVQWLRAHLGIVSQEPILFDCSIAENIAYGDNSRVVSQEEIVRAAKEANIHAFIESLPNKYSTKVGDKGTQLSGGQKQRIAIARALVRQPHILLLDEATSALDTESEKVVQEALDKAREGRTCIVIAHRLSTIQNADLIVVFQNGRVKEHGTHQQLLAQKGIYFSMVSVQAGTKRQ
SMILES,Maximum Ratio (uptake in transporter‐expressing cells to empty‐vector control cells) [1],substrate of the transporter [1],substrate of the transporter [2],Maximum Ratio (net flux in transporter‐expressing cells to control cells) [2],substrate of the transporter [3]
"CC(N)Cc1cccc(C(F)(F)F)c1.Cl (stereo not shown) [nFFA, 1‐(3‐(trifluoromethyl)phenyl)propan‐2‐amine hydrochloride]",1.16,not substrates,not substrates,1.42,not substrates
"CCNC(C)Cc1cccc(C(F)(F)F)c1 (racemic) [FFA, (RS)‐ethyl (α‐methyl‐3‐trifluoromethylphenethyl)amine]",1.09,not substrates,not substrates,1.51,not substrates
